Source: patent US10894775B2, “Piperidine derivatives as liver X receptor beta agonists, compositions, and their use” (Merck Sharp & Dohme Corp., priority 2016, dated 2021)
Like-named read-outs stand apart in the source and are kept apart here.

How the values were obtained:
[1] = molecular target: T1, glutathione-S-transferase (GST) tagged LXRalpha LBD (ligand binding domain) (Homo sapiens, UniProt Q13133); assay: LanthaScreen TR-FRET Liver X Receptor Coactivator Assay, LXR alpha; type: biochemical; settings: for Emax: read-out: LXR alpha actiivty at max dose (%); for EC50 / LXR alpha IP (nM): potency (Inflection Point) of compound-induced co-activator recruitment, TR-FRET; for EC50: read-out: LXR alpha IP
T1 construct: purchased Invitrogen pv4655
T1 sequence (Q13133 209-447 limits assumed): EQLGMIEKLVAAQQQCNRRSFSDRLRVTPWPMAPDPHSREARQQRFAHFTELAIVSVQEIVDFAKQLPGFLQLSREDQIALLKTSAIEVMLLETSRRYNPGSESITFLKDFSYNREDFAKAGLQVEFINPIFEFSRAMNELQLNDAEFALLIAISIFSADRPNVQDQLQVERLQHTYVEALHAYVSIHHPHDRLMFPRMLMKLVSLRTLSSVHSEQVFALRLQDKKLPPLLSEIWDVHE
Experimental: (§1) While running the LanthaScreen™ TR-FRET Liver X Receptor Coactivator Assay, LXR alpha-LBD or LXR beta-LBD was added to ligand test compounds followed by addition of a mixture of a fluorescein-labelled coactivator peptide and terbium-conjugated anti-GST antibody. After an incubation period at room temperature, TR-FRET (time-resolved fluorescence resonance energy transfer) was measured using a filter-based instrument capable of TR-FRET, e.g. PerkinElmer Envision.

[2] = molecular target: T2, glutathione-S-transferase (GST) tagged LXRbeta LBD (ligand binding domain) (Homo sapiens, UniProt P55055); assay: LanthaScreen TR-FRET Liver X Receptor Coactivator Assay, LXR beta; type: biochemical; settings: for Emax: read-out: LXR beta actiivty at max dose (%); for EC50: potency (Inflection Point) of compound-induced co-activator recruitment, TR-FRET
T2 construct: purchased Invitrogen pv4658.pps
T2 sequence (P55055 222-460 limits assumed): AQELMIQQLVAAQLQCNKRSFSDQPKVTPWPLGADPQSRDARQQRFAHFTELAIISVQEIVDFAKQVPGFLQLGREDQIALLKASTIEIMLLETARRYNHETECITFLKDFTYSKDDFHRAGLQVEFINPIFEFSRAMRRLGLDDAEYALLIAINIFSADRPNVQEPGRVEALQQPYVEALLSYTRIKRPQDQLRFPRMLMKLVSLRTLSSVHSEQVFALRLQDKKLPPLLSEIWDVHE
Experimental: as §1

[3] = efficacy (Emax) in relation to reference dual agonist T0901317

Row | SMILES | Emax [1, 3] [%] | EC50 [1] [nM] | Emax [2, 3] [%] | EC50 ([2]; read-out: LXR beta IP) [nM] | LXR alpha IP (nM) [1] | EC50 ([2]; LXR beta IP (nM)) [nM] | Emax [2] [%] | Emax [1] [%]
1 | CN(C)C(=O)c1ccc(NCCC[C@@H]2CC23CCN(C(=O)[C@](O)(c2ccccc2)C(F)(F)F)CC3)cc1Cl (single isomer, unassigned) [Example 6-1, 2-chloro-N,N-dimethyl-4-(3-((R or S)-6-((R or S)-3,3,3-trifluoro-2-hydroxy-2-phenylpropanoyl)-6-azaspiro[2.5]octan-1-yl)propylamino)benzamide] | 21 | 828 | 30 | 15 | – | – | – | –
2 | CN(C)C(=O)c1ccc(NCCC[C@H]2CC23CCN(C(=O)[C@](O)(c2ccccc2)C(F)(F)F)CC3)cc1Cl (single isomer, unassigned) [Example 6-2, 2-chloro-N,N-dimethyl-4-(3-((S or R)-6-((R or S)-3,3,3-trifluoro-2-hydroxy-2-phenylpropanoyl)-6-azaspiro[2.5]octan-1-yl)propylamino)benzamide] | 11 | 472 | 56 | 8 | – | – | – | –
3 | CN(C)C(=O)c1ccc(NCCC[C@H]2CC23CCN(C(=O)[C@](O)(c2ccccc2)C(F)(F)F)CC3)nc1Cl (single isomer, unassigned) [Example 6-3, 2-chloro-N,N-dimethyl-6-(3-((S or R)-6-((R or S)-3,3,3-trifluoro-2-hydroxy-2-phenylpropanoyl)-6-azaspiro[2.5]octan-1-yl)propylamino)nicotin-amide] | 24 | 1400 | 49 | 14 | – | – | – | –
4 | CN(C)C(=O)c1c(F)cc(NCCC[C@H]2CC23CCN(C(=O)[C@](O)(c2ccccc2)C(F)(F)F)CC3)cc1F (single isomer, unassigned) [Example 6-5, 2,6-difluoro-N,N-dimethyl-4-(3-((S or R)-6-((R or S)-3,3,3-trifluoro-2-hydroxy-2-phenylpropanoyl)-6-azaspiro[2.5]octan-1-yl)propylamino)benzamide] | 19 | 2150 | 24 | 49 | – | – | – | –
5 | CN(C(=O)c1ccc(NCCC[C@@H]2CC23CCN(C(=O)[C@](O)(c2ccccc2)C(F)(F)F)CC3)cc1Cl)C1CC1 (single isomer, unassigned) [Example 6-6, 2-chloro-N-cyclopropyl-N-methyl-4-(3-((R or S)-6-((R or S)-3,3,3-trifluoro-2-hydroxy-2-phenylpropanoyl)-6-azaspiro[2.5]octan-1-yl)propylamino)benzamide] | 0 | – | 43 | 49 | No IP | – | – | –
6 | CNC(=O)c1ccc(NCCC[C@@H]2CC23CCN(C(=O)[C@@](O)(C(C)C)C(F)(F)F)CC3)cc1Cl (single isomer, unassigned) [Example 6-8, 2-chloro-4-(3-((R or S)-6-((S or R)-2-hydroxy-3-methyl-2-(trifluoromethyl)butanoyl)-6-azaspiro[2.5]octan-1-yl)propylamino)-N-methylbenzamide] | 65 | 829 | 91 | 9 | – | – | – | –
7 | CNC(=O)c1ccc(NCCC[C@@H]2CC23CCN(C(=O)[C@](O)(C(C)C)C(F)(F)F)CC3)cc1Cl (single isomer, unassigned) [Example 6-9, 2-chloro-4-(3-((R or S)-6-((R or S)-2-hydroxy-3-methyl-2-(trifluoromethyl)butanoyl)-6-azaspiro[2.5]octan-1-yl)propylamino)-N-methylbenzamide] | 64 | 869 | 60 | 21 | – | – | – | –
8 | CN(C)C(=O)c1ccc(N(C)CCC[C@@H]2CC23CCN(C(=O)[C@](O)(c2ccccc2)C(F)(F)F)CC3)cc1Cl (single isomer, unassigned) [Example 7-1, 2-chloro-N,N-dimethyl-4-(methyl(3-((R or S)-6-((R or S)-3,3,3-trifluoro-2-hydroxy-2-phenylpropanoyl)-6-azaspiro[2.5]octan-1-yl)propyl)amino)benzamide] | 28 | 683 | 103 | 59 | – | – | – | –
9 | CN(C)C(=O)c1ccc(NCCC2CC23CCN(C(=O)C2(c4ccccc4)CCCC2)CC3)cc1Cl (single isomer, unassigned) [Example 8-1, (S or R)-2-chloro-N,N-dimethyl-4-(2-(6-(1-phenylcyclopentanecarbonyl)-6-azaspiro[2.5]octan-1-yl)ethylamino)benzamide] | 0 | – | – | – | No IP | 7 | 21 | –
10 | COc1cccc(C(O)(C(=O)N2CCC3(CCC(Nc4ccc(C(=O)N(C)C)c(Cl)c4)CC3)CC2)C(F)(F)F)c1 (single isomer, unassigned) [Example 10-1, 2-chloro-N,N-dimethyl-4-(3-((R or S)-3,3,3-trifluoro-2-hydroxy-2-(3-methoxyphenyl)propanoyl)-3-azaspiro[5.5]undecan-9-ylamino)benzamide] | 12 | – | 54 | 73 | No IP | – | – | –
11 | COc1cccc([C@@](O)(C(=O)N2CCC(CC3CC(Nc4ccc(C(=O)N(C)C)c(Cl)c4)C3)CC2)C(F)(F)F)c1 (single isomer, unassigned) [Example 11-1, 2-chloro-N,N-dimethyl-4-((1R,3s)-3-((1-((R or S)-3,3,3-trifluoro-2-hydroxy-2-(3-methoxyphenyl)propanoyl)piperidin-4-yl)methyl)cyclobutylamino)benzamide] | – | – | – | 8 | No IP | – | 85 | 12

The next lines start with results.

Row | Emax [1, 3] [%] | EC50 [1] [nM] | Emax [2, 3] [%] | EC50 ([2]; read-out: LXR beta IP) [nM] | LXR alpha IP (nM) [1] | SMILES | EC50 ([2]; LXR beta IP (nM)) [nM] | Emax [2] [%] | Emax [1] [%]
12 | 6 | – | 18 | 34 | No IP | O=C(c1ccc(NCCC[C@@H]2CC23CCN(C(=O)[C@](O)(c2ccccc2)C(F)(F)F)CC3)cc1Cl)N1CCCC1 (single isomer, unassigned) [Example 6-4, (R or S)-1-((R or S)-1-(3-(3-chloro-4-(pyrrolidine-1-carbonyl)phenylamino)propyl)-6-azaspiro[2.5]octan-6-yl)-3,3,3-trifluoro-2-hydroxy-2-phenylpropan-1-one] | – | – | –
13 | 9 | – | 91 | 68 | No IP | CN(C)C(=O)c1ccc(NCCC[C@H]2CC23CCN(C(=O)[C@@](O)(c2ccccc2)C(F)(F)C(F)(F)F)CC3)cc1Cl (single isomer, unassigned) [Example 6-7, 2-chloro-N,N-dimethyl-4-(3-((S or R)-6-((S or R)-3,3,4,4,4-pentafluoro-2-hydroxy-2-phenylbutanoyl)-6-azaspiro[2.5]octan-1-yl)propylamino)benzamide] | – | – | –
14 | 34 | 516 | 75 | 14 | – | CN(C)C(=O)c1ccc(NC[C@H]2C[C@@H]2C2CCN(C(=O)[C@](O)(c3ccccc3)C(F)(F)F)CC2)cc1Cl (single isomer, unassigned) [Example 8-2, 2-chloro-N,N-dimethyl-4-(((1S,2R or 1R,2S)-2-(1-((R or S)-3,3,3-trifluoro-2-hydroxy-2-phenylpropanoyl)piperidin-4-yl)cyclopropyl)methylamino)benzamide] | – | – | –
15 | 35 | 421 | 50 | 4 | – | CN(C)C(=O)c1ccc(NC[C@H]2C[C@H]2C2CCN(C(=O)[C@](O)(c3ccccc3)C(F)(F)F)CC2)cc1Cl (single isomer, unassigned) [Example 8-3, 2-chloro-N,N-dimethyl-4-(((1S,2S or 1R,2R)-2-(1-((R or S)-3,3,3-trifluoro-2-hydroxy-2-phenylpropanoyl)piperidin-4-yl)cyclopropyl)methylamino)benzamide] | – | – | –
16 | 22 | 797 | 80 | 29 | – | CN(C)C(=O)c1ccc(N(C)CCC2CC23CCN(C(=O)C(C)(C)c2ccccc2)CC3)cc1Cl (single isomer, unassigned) [Example 9-1, (S or R)-2-chloro-N,N-dimethyl-4-(methyl(2-(6-(2-methyl-2-phenylpropanoyl)-6-azaspiro[2.5]octan-1-yl)ethyl)amino)benzamide] | – | – | –
17 | 39 | 321 | 57 | 6 | – | CN(C)C(=O)c1ccc(NCCC2CC3(CCN(C(=O)C(O)(c4ccccc4)C(F)(F)F)CC3)C2)cc1Cl (single isomer, unassigned) [Example 13-1, 2-chloro-N,N-dimethyl-4-(2-(7-((R or S)-3,3,3-trifluoro-2-hydroxy-2-phenylpropanoyl)-7-azaspiro[3.5]nonan-2-yl)ethylamino)benzamide] | – | – | –
